# How the values were obtained:
# Format in all cases: physicochemical
# [1] = Relative ΔOD at Saturation Test; details: ΔOD at saturation (Band A)/ΔOD at saturation (Band B)×100
# From the text: In accordance with the present invention, it has now been discovered that certain novel indeno[2,1-f]naphtho[1,2-b]pyrans having two absorption bands in the activated (colored) state, an acceptable fade rate, high activated intensity, a high coloration rate and a rating of 80 or higher in the Relative ΔOD at Saturation Test may be prepared. The Relative ΔOD at Saturation Test is described in Example 21. The ratings of the test are defined herein as the result obtained when the optical density of band "A" is divided by the optical density of band "B" and multiplied by 100. It is believed that compounds having a rating of 80 or higher are most valuable for formulating neutral grays, greens and browns for commercial photochromic ophthalmic eyeware.
# (§1) Testing was done with the photochromic compounds described in Examples 1 through 20 and Comparative Examples 1 through 3 in the following manner. A quantity of photochromic compound calculated to yield a 1.5×10^-3 molal solution was added to a flask containing 50 grams of a monomer blend of 4 parts ethoxylated bisphenol A dimethacrylate (BPA 2EO DMA), 1 part poly(ethylene glycol) 600 dimethacrylate, and 0.033 weight percent 2,2'-azobis(2-methyl propionitrile) (AIBN). The photochromic compound was dissolved into the monomer blend by stirring and gentle heating, if necessary. After a clear solution was obtained, it was poured into a flat sheet mold having the interior dimensions of 2.2 mm×6 inches (15.24 cm)×6 inches (15.24 cm). The mold was sealed and placed in a horizontal air flow, programmable oven programmed to increase the temperature from 40° C. to 95° C. over a 5 hour interval, hold the temperature at 95° C. for 3 hours, lower it to 60° C. over a 2 hour interval and then hold it at 60° C. for 16 hours. After the mold was opened, the polymer sheet was cut using a diamond blade saw into 2 inch (5.1 centimeters) test squares.
# (§2) The photochromic test squares of Part A were tested for photochromic response rates on an optical bench. Prior to testing on the optical bench, the photochromic test squares were exposed to 365 nanometer ultraviolet light for about 15 minutes to activate the photochromic compounds and then placed into a 76° C. oven for about 15 minutes to bleach the photochromic compounds. The test squares were then cooled to room temperature, exposed to fluorescent room lighting for at least 2 hours and then kept covered for at least 2 hours prior to testing on an optical bench maintained at 72° F. (22.2° C.). The bench was fitted with a 250 watt Xenon arc lamp, a remote controlled shutter, a copper sulfate bath acting as a heat sink for the arc lamp, a Schott WG-320 nm cut-off filter which removes short wavelength radiation; neutral density filter(s) and a sample holder in which the square to be tested was inserted. The power output of the optical bench, i.e., the dosage of light that the sample lens would be exposed to, was calibrated with a photochromic test square used as a reference standard. […] The UV-A detector was placed into the sample holder and the light output was measured. Adjustments to the power output were made by increasing or decreasing the lamp wattage or by adding or removing neutral density filters in the light path.
# Change in optical density (ΔOD) was determined by inserting a test square in the bleached state into the sample holder, adjusting the transmittance scale to 100%, opening the shutter from the Xenon lamp to provide ultraviolet radiation to change the test square from the bleached state to an activated (i.e., darkened) state, measuring the transmittance in the activated state, and calculating the change in optical density according to the formula: ΔOD=log(100/% Ta), where % Ta is the percent transmittance in the activated state and the logarithm is to the base 10. […]
# [2] = lambda max (Vis) of activated photochromic test squares in a Varian Cary 3 uv-visible spectrophotometer; details: activated form in test square
# Method: as §1
# The lambda max (Vis) is the wavelength in the visible spectrum at which the maximum absorption of the activated (colored) form of the photochromic compound in a test square occurs. The lambda max (Vis) wavelengths reported in Table 1 were determined by testing the photochromic test square polymerizates of Part A in a Varian Cary 3 uv-visible spectrophotometer. The bleach rate (T 1/2) is the time interval in seconds for the absorbance of the activated form of the photochromic compound in the test squares to read one half the highest absorbance at room temperature (72° F., 22.2° C.) after removal of the source of activating light.
# For each lambda max visible, the corresponding optical density (Δ OD/Min and Δ OD at saturation) for the desired compounds of the Examples and Comparative Examples are tabulated in Table 1 for the two bands (A and B) of peak absorption for each compound. Table 1 also includes the bleach rate (T 1/2) for each of the compounds as measured at band B. The ratings of the Relative Δ OD at Saturation Test for the bands A and B of each of the Examples and Comparative Examples are calculated as follows: Δ OD at saturation (Band A)/Δ OD at saturation (Band B)×100.
# [3] = photochromic response of test squares on an optical bench (sensitivity, saturation optical density, bleach rate); details: for ΔOD @ Saturation (Band A) / ΔOD @ Saturation (Band B): UV exposure 15 minutes; for ΔOD @ Saturation (Band A) / Sensitivity ΔOD/MIN (Band A) / ΔOD @ Saturation (Band B) / Sensitivity ΔOD/MIN (Band B): 72° F. (22.2° C.), polymer test square; for Sensitivity ΔOD/MIN (Band A) / Sensitivity ΔOD/MIN (Band B): first five (5) seconds of UV exposure, expressed per minute; for Bleach Rate T 1/2: measured at band B, room temperature (72° F., 22.2° C.) after removal of activating light
# Method: as §1, §2
# A monitoring, collimated beam of light from a tungsten lamp was passed through the square at a small angle (approximately 30°) normal to the square. After passing through the square, the light from the tungsten lamp was directed to a detector through Spectral Energy Corp. GM-200 monochromator set at the previously determined visible lambda max of the photochromic compound being measured. The output signals from the detector were processed by a radiometer.
# Change in optical density (ΔOD) was determined by inserting a test square in the bleached state into the sample holder, adjusting the transmittance scale to 100%, opening the shutter from the Xenon lamp to provide ultraviolet radiation to change the test square from the bleached state to an activated (i.e., darkened) state, measuring the transmittance in the activated state, and calculating the change in optical density according to the formula: ΔOD=log(100/% Ta), where % Ta is the percent transmittance in the activated state and the logarithm is to the base 10.
# The ΔOD/Min, which represents the sensitivity of the photochromic compound's response to UV light, was measured over the first five (5) seconds of UV exposure, then expressed on a per minute basis. The saturation optical density (ΔOD@ Saturation) was taken under identical conditions as the ΔOD/Min, except UV exposure was continued for 15 minutes. […]
Relative ΔOD at Saturation (rating) [1],λ MAX Vis (Band A) [2] [nm],λ MAX Vis (Band B) [2] [nm],ΔOD @ Saturation (Band A) [3],Sensitivity ΔOD/MIN (Band A) [3],ΔOD @ Saturation (Band B) [3],Sensitivity ΔOD/MIN (Band B) [3],Bleach Rate T 1/2 [3] [min],Structure (SMILES)
59,437,562,0.16,0.21 ΔOD/MIN,0.27,0.29 ΔOD/MIN,0.783,"CCC1(O)c2ccccc2-c2c1c1c(c3ccccc23)OC(c2ccc(OC)cc2)(c2ccc(OC)cc2)C=C1 (centres unmarked) [Comp. Ex. 1, 3,3-di(4-methoxyphenyl)-13-hydroxy-13-ethyl-3H-13H-indeno[2,1-f]naphtho[1,2-b]pyran, reference compound]"
70,499,607,0.36,0.22 ΔOD/MIN,0.51,0.32 ΔOD/MIN,2.17,"CCC1(O)c2cc(OC)ccc2-c2c1c1c(c3cc(OC)ccc23)OC(c2ccc(OC)cc2)(c2ccc(OC)cc2)C=C1 (centres unmarked) [Comp. Ex. 2, 3,3-di(4-methoxyphenyl)-6,11-dimethoxy-13-hydroxy-13-ethyl-3H-13H-indeno[2,1-f]naphtho[1,2-b]pyran, reference compound]"
71,445,600,0.34,0.32 ΔOD/MIN,0.48,0.48 ΔOD/MIN,1.27,"CCC1(O)c2cc(OC)c(OC)cc2-c2c1c1c(c3ccccc23)OC(c2ccc(OC)cc2)(c2ccc(OC)cc2)C=C1 (centres unmarked) [Comp. Ex. 3, 3,3-di(4-methoxyphenyl)-10,11-dimethoxy-13-hydroxy-13-ethyl-3H-13H-indeno[2,1-f]naphtho[1,2-b]pyran, reference compound]"
125,445,611,0.99,0.33 ΔOD/MIN,0.79,0.24 ΔOD/MIN,8.77,"COc1ccc(C2(c3ccc(OC)cc3)C=Cc3c4c(c5cc(OC)c(OC)cc5c3O2)-c2cc(OC)c(OC)cc2C4(C)C)cc1 [Example 1, 3,3-di(4-methoxyphenyl)-6,7,10,11-tetramethoxy-13,13-dimethyl-3H,13H-indeno[2,1-f]naphtho[1,2-b]pyran]"
103,485,618,1.10,0.32 ΔOD/MIN,1.07,0.29 ΔOD/MIN,14.2,"COc1cc2c(cc1OC)C(C)(C)c1c3c(c4cc(OC)c(OC)cc4c1-2)OC(c1ccccc1)(c1ccc(N2CCOCC2)cc1)C=C3 (centres unmarked) [Example 2, 3-phenyl-3-(4-morpholinophenyl)-6,7,10,11-tetramethoxy-13,13-dimethyl-3H,13H-indeno[2,1-f]naphtho[1,2-b]pyran]"
151,460,623,0.62,0.34 ΔOD/MIN,0.41,0.24 ΔOD/MIN,2.58,"CCC1(O)c2cc(OC)c(OC)cc2-c2c1c1c(c3cc(OC)c(OC)cc23)OC(c2ccc(OC)cc2)(c2ccc(OC)cc2)C=C1 (centres unmarked) [Example 3, 3,3-di(4-methoxyphenyl)-6,7,10,11-tetramethoxy-13-hydroxy-13-ethyl-3H,13H-indeno[2,1-f]naphtho[1,2-b]pyran]"
156,455,576,1.11,0.39 ΔOD/MIN,0.71,0.22 ΔOD/MIN,4.45,"COc1ccc(C2(c3ccc(OC)cc3)C=Cc3c4c(c5cc(OC)c(OC)cc5c3O2)-c2ccccc2C4(C)C)cc1 [Example 4, 3,3-di(4-methoxyphenyl)-6,7-dimethoxy-13,13-dimethyl-3H-13H-indeno[2,1-f]naphtho[1,2-b]pyran]"
155,458,584,0.42,0.26 ΔOD/MIN,0.27,0.19 ΔOD/MIN,1.45,"CCC1(O)c2ccccc2-c2c1c1c(c3cc(OC)c(OC)cc23)OC(c2ccc(OC)cc2)(c2ccc(OC)cc2)C=C1 (centres unmarked) [Example 5, 3,3-di(4-methoxyphenyl)-6,7-dimethoxy-13-hydroxy-13-ethyl-3H-13H-indeno[2,1-f]naphtho[1,2-b]pyran]"
140,440,608,1.02,0.46 ΔOD/MIN,0.73,0.37 ΔOD/MIN,5.17,"CCC1(CC)c2cc(OC)c(OC)cc2-c2c1c1c(c3cc(OC)c(OC)cc23)OC(c2ccc(OC)cc2)(c2ccc(OC)cc2)C=C1 [Example 6, 3,3-di(4-methoxyphenyl)-6,7,10,11-tetramethoxy-13,13-diethyl-3H,13H-indeno[2,1-f]naphtho[1,2-b]pyran]"
153,460,577,0.66,0.17 ΔOD/MIN,0.43,0.16 ΔOD/MIN,3.43,"COc1ccc(C2(c3ccc(OC)cc3)C=Cc3c4c(c5cc(OC)c(OC)cc5c3O2)-c2ccccc2C4c2ccccc2)cc1 (centres unmarked) [Example 7, 3,3-di(4-methoxyphenyl)-6,7-dimethoxy-13-phenyl-3H,13H-indeno[2,1-f]naphtho[1,2-b]pyran]"

# — patent publication US6296785A, “Indeno-fused photochromic naphthopyrans” (PPG Industries Ohio, Inc., priority 2000, dated 2001)
